Experimental data as given in PubChem BioAssay AID330 (DTP/NCI, 2004).
Where “and” joins values, the source holds several entries; their conditions need not be identical. Equal values may be shown once. Inconclusive results and toxic doses are left out. How the source made its calls: active means survival T/C of 150% or more; inactive means T/C below 125% in these data.

System: P388 leukemia ip, CD2F1 mice, survival T/C
Assay: NCI In Vivo Anticancer Drug Screen. Data for tumor model P388 Leukemia (intraperitoneal) in CD2F1 (CDF1) mice
Conditions: endpoint: median survival time, higher = longer survival
Procedure, shortened: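 Mice carrying the transplanted tumor received test compound or vehicle. Survival was recorded in each group, and the value is the treated-group measurement divided by that of the vehicle-treated control group.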

[1] = dose: 100.0 mg/kg/injection, schedule: Q04DX003 (ip), vehicle: saline
[2] = dose: 200.0 mg/kg/injection, schedule: Q04DX003 (ip), vehicle: saline
[3] = dose: 400.0 mg/kg/injection, schedule: Q04DX003 (ip), vehicle: saline
[4] = dose: 50.0 mg/kg/injection, schedule: Q01DX005 (ip), vehicle: saline with Tween-80
[5] = dose: 100.0 mg/kg/injection, schedule: Q01DX005 (ip), vehicle: saline with Tween-80
[6] = dose: 200.0 mg/kg/injection, schedule: Q01DX005 (ip), vehicle: saline with Tween-80
[7] = dose: 12.5 mg/kg/injection, schedule: Q01DX009 (ip), vehicle: saline with Tween-80
[8] = dose: 25.0 mg/kg/injection, schedule: Q01DX005 (ip), vehicle: Klucel (hydroxypropylcellulose) (HPC)
[9] = dose: 50.0 mg/kg/injection, schedule: Q01DX005 (ip), vehicle: Klucel (hydroxypropylcellulose) (HPC)
[10] = dose: 100.0 mg/kg/injection, schedule: Q01DX005 (ip), vehicle: Klucel (hydroxypropylcellulose) (HPC)
[11] = dose: 200.0 mg/kg/injection, schedule: Q01DX005 (ip), vehicle: Klucel (hydroxypropylcellulose) (HPC)
[12] = dose: 50.0 mg/kg/injection, schedule: Q01DX009 (ip), vehicle: saline with Tween-80
[13] = dose: 100.0 mg/kg/injection, schedule: Q01DX009 (ip), vehicle: saline with Tween-80
[14] = dose: 200.0 mg/kg/injection, schedule: Q01DX009 (ip), vehicle: saline with Tween-80
[15] = dose: 25.0 mg/kg/injection, schedule: Q01DX009 (ip), vehicle: saline with Tween-80
[16] = dose: 50.0 mg/kg/injection, schedule: Q01DX009 (ip), vehicle: saline
[17] = dose: 100.0 mg/kg/injection, schedule: Q01DX009 (ip), vehicle: saline
[18] = dose: 200.0 mg/kg/injection, schedule: Q01DX009 (ip), vehicle: saline
[19] = dose: 25.0 mg/kg/injection, schedule: Q01DX005 (ip), vehicle: saline with Tween-80

Measured: T/C

BrC1CC2(OCCO2)C(Br)CC12OCCO2 (stereo not given)
inactive: dose: 25.0 mg/kg/injection, schedule: Q04DX003 (ip), vehicle: saline 99 % of control | dose: 50.0 mg/kg/injection, schedule: Q04DX003 (ip), vehicle: saline 100 % of control | [1] 118 % of control | [2] 103 % of control | [3] 103 % of control

CCCCN(CCCC)CCNC(c1ccc(OC)cc1)c1ccc(OC)cc1
inactive: [4] 98 % of control | [5] 93 % of control | [6] 96 % of control

CNN(C)P(=S)(Oc1ccccc1)N(C)NC
inactive: [4] 101 % of control | [5] 103 % of control | [6] 102 % of control

CC1C(O)CC23COC(=O)C2=CCCC3C1(C)CCC1COC(=O)C1 (stereo not given)
inactive: dose: 9.38 mg/kg/injection, schedule: Q01DX005 (ip), vehicle: Klucel (hydroxypropylcellulose) (HPC) 101 % of control | dose: 18.75 mg/kg/injection, schedule: Q01DX005 (ip), vehicle: Klucel (hydroxypropylcellulose) (HPC) 90 % of control | dose: 37.5 mg/kg/injection, schedule: Q01DX005 (ip), vehicle: Klucel (hydroxypropylcellulose) (HPC) 105 % of control | dose: 75.0 mg/kg/injection, schedule: Q01DX005 (ip), vehicle: Klucel (hydroxypropylcellulose) (HPC) 117 % of control

COc1ccc(C2CC(=O)N(c3ncccc3C)C(=O)C2)cc1
inactive: [1] 93 % of control | [2] 100 % of control | [3] 102 % of control

CCOC(=O)/C=C(/C)SC1=CC(=O)c2ccccc2C1=O
inactive: dose: 1.56 mg/kg/injection, schedule: Q01DX009 (ip), vehicle: saline 91 % of control | dose: 6.25 mg/kg/injection, schedule: Q01DX009 (ip), vehicle: saline 98 % of control | [7] 119 % of control | dose: 12.5 mg/kg/injection, schedule: Q01DX009 (ip), vehicle: saline 100 % of control

O=C(O)CSC(=O)NCCCCCCNC(=O)Nc1ccccc1
inactive: [4] 104 % of control | [5] 105 % of control | [6] 112 % of control

COC1=CCC2C(=O)C=CC(=O)C2C1 (stereo not given)
inactive: dose: 12.5 mg/kg/injection, schedule: Q01DX005 (ip), vehicle: Klucel (hydroxypropylcellulose) (HPC) 101 % of control | [8] 93 % of control | [9] 101 % of control | [10] 96 % of control | [11] 101 % of control

C(=C/c1cc2cc(C3=NCCN3)ccc2o1)/C=C/c1cc2cc(C3=NCCN3)ccc2o1
inactive: [1] 106 % of control | [2] 104 % of control | [3] 110 % of control

COC(=O)c1ccc(C(=O)OC)c2nc3cc([N+](=O)[O-])ccc3nc12
inactive: dose: 60.0 mg/kg/injection, schedule: Q01DX005 (ip), vehicle: suspension in saline 100 % of control | dose: 120.0 mg/kg/injection, schedule: Q01DX005 (ip), vehicle: suspension in saline 102 % of control

COc1ccc(CCN2CN=C(Sc3ccc([N+](=O)[O-])cc3Cl)NC2)cc1OC
inactive: [12] 98 % of control | [13] 98 % of control | [14] 93 % of control

COc1cc(C(=O)NC2CC2)cc(OC)c1OC
inactive: [15] 101 % of control | [12] 104 % of control | [13] 107 % of control | [14] 110 % of control

COc1ccc(/C=C/C(=O)c2ccccc(=O)c2O)c(OC)c1
inactive: [8] 101 % of control | [9] 98 % of control | [10] 105 % of control | [11] 104 % of control

Cc1c(Cl)cccc1Nc1ncccc1C(=O)OCC(O)CO (stereo not given)
inactive: [4] 96 % of control | [5] 98 % of control | [6] 95 % of control

CN(C(=S=O)c1ccccc1)c1ccccc1
inactive: [16] 109 % of control | [17] 104 % of control | [18] 106 % of control

O=C(O)c1cnc2cc3c(cc2c1Nc1cccc(C(F)(F)F)c1)OCO3
inactive: dose: 60.0 mg/kg/injection, schedule: Q01DX005 (ip), vehicle: Klucel (hydroxypropylcellulose) (HPC) 99 % of control | dose: 120.0 mg/kg/injection, schedule: Q01DX005 (ip), vehicle: Klucel (hydroxypropylcellulose) (HPC) 96 % of control | dose: 240.0 mg/kg/injection, schedule: Q01DX005 (ip), vehicle: Klucel (hydroxypropylcellulose) (HPC) 96 % of control

CC(=O)OCc1c(-c2ccccc2)sc2ccccc2c1=O
inactive: [9] 96 % of control | [10] 102 % of control | [11] 97 % of control

CN1CNC(=O)NC1
inactive: [16] 107 % of control | [17] 100 % of control and 106 % of control | [18] 99 % of control and 101 % of control

CC(=O)OC[C@@]1(C)[C@@H]2CC[C@]3(C)[C@H](C(=O)C=C4[C@@H]5CC(C)(C)CC[C@]5(C(=O)O)CC[C@]43C)[C@@]2(C)CC[C@@H]1OC(C)=O
inactive: [19] 108 % of control | [4] 87 % of control and 95 % of control | [5] 93 % of control

CN(C)c1cccc2c(Cl)c(Cl)c3cccc(N(C)C)c3c12
inactive: dose: 60.0 mg/kg/injection, schedule: Q01DX005 (ip), vehicle: saline with Tween-80 98 % of control | dose: 120.0 mg/kg/injection, schedule: Q01DX005 (ip), vehicle: saline with Tween-80 100 % of control | dose: 240.0 mg/kg/injection, schedule: Q01DX005 (ip), vehicle: saline with Tween-80 99 % of control

O=C(/C=C/c1ccc(OCc2ccccc2)cc1)c1ccc(C(F)(F)F)cc1
inactive: [7] 94 % of control | [15] 100 % of control | [12] 90 % of control and 93 % of control | [14] 95 % of control

CNC(=O)CC(=O)NC
inactive: dose: 100.0 mg/kg/injection, schedule: Q04DX003 (ip), vehicle: suspension in saline 93 % of control | dose: 200.0 mg/kg/injection, schedule: Q04DX003 (ip), vehicle: suspension in saline 100 % of control | dose: 400.0 mg/kg/injection, schedule: Q04DX003 (ip), vehicle: suspension in saline 95 % of control

CC(=O)N(c1c(N)[nH]c(=O)n(C)c1=O)C1OC(CO)C(O)C(O)C1O (stereo not given)
inactive: dose: 60.0 mg/kg/injection, schedule: Q01DX005 (ip), vehicle: saline 99 % of control | dose: 120.0 mg/kg/injection, schedule: Q01DX005 (ip), vehicle: saline 99 % of control | dose: 240.0 mg/kg/injection, schedule: Q01DX005 (ip), vehicle: saline 97 % of control

C=C(Cl)CN(CC)CCO
inactive: dose: 25.0 mg/kg/injection, schedule: Q01DX009 (ip), vehicle: saline sonified 100 % of control | dose: 50.0 mg/kg/injection, schedule: Q01DX009 (ip), vehicle: saline sonified 100 % of control | dose: 100.0 mg/kg/injection, schedule: Q01DX009 (ip), vehicle: saline sonified 100 % of control

O=C(Nc1cccc(O)c1)C(Cl)=C(Cl)Cl
inactive: dose: 3.12 mg/kg/injection, schedule: Q01DX005 (ip), vehicle: DMSO 109 % of control | dose: 6.25 mg/kg/injection, schedule: Q01DX005 (ip), vehicle: DMSO 104 % of control | dose: 6.25 mg/kg/injection, schedule: Q01DX005 (ip), vehicle: saline with Tween-80 101 % of control | dose: 12.5 mg/kg/injection, schedule: Q01DX005 (ip), vehicle: DMSO 109 % of control | dose: 12.5 mg/kg/injection, schedule: Q01DX005 (ip), vehicle: saline with Tween-80 115 % of control | dose: 25.0 mg/kg/injection, schedule: Q01DX005 (ip), vehicle: DMSO 108 % of control | [19] 110 % of control | dose: 50.0 mg/kg/injection, schedule: Q01DX005 (ip), vehicle: DMSO 104 % of control

O=C1c2ccccc2CCC12OC2c1cccnc1 (stereo not given)
inactive: dose: 25.0 mg/kg/injection, schedule: Q01DX009 (ip), vehicle: Klucel (hydroxypropylcellulose) (HPC) 100 % of control | dose: 50.0 mg/kg/injection, schedule: Q01DX009 (ip), vehicle: Klucel (hydroxypropylcellulose) (HPC) 100 % of control | dose: 100.0 mg/kg/injection, schedule: Q01DX009 (ip), vehicle: Klucel (hydroxypropylcellulose) (HPC) 104 % of control

Cn1c(=O)c2c(=O)n3ccccc3nc2n(C)c1=O
inactive: [9] 104 % of control | [10] 96 % of control

CN=NN(C)C(=O)NC
inactive: dose: 12.5 mg/kg/injection, schedule: Q01DX005 (ip), vehicle: saline 102 % of control | dose: 25.0 mg/kg/injection, schedule: Q01DX005 (ip), vehicle: saline 117 % of control
